Measurements reported in ChEMBL document CHEMBL1136174, “Synthesis and antimycobacterial activity of capuramycin analogues. Part 1: substitution of the azepan-2-one moiety of capuramycin” (Bioorg Med Chem Lett, 2003).
Converted amounts (≈) assume the structure as drawn.

Assays:
[1] = test system: Mycolicibacterium smegmatis; experiment: Antimycobacterial activity against Mycobacterium smegmatis (SANK 75075); format: functional
[2] = target: T1, Phospho-N-acetylmuramoyl-pentapeptide-transferase (Escherichia coli K-12, UniProt P0A6W3); experiment: Inhibitory activity against translocase I
T1 sequence (P0A6W3 whole entry): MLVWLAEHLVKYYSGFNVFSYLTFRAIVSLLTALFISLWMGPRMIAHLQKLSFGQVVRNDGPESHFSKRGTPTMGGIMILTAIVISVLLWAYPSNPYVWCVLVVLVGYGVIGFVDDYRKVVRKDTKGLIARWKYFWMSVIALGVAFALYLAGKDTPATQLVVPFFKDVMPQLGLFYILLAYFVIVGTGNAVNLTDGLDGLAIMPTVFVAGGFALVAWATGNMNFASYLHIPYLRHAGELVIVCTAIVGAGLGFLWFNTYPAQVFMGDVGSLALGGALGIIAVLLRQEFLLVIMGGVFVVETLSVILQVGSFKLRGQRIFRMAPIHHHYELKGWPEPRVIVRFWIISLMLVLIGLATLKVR

Structure (SMILES) | MIC [1] [µg/mL] | IC50 [2] [nM]
CO[C@H]1[C@@H](O)[C@H](n2ccc(=O)[nH]c2=O)O[C@@H]1[C@@H](O[C@H]1OC(C(=O)NCc2ccc3c(c2)OCO3)=C[C@H](O)[C@@H]1O)C(N)=O | 50 (≈ 84.4 µM) | 338
CO[C@H]1[C@@H](O)[C@H](n2ccc(=O)[nH]c2=O)O[C@@H]1[C@@H](O[C@H]1OC(C(=O)NCCc2ccc(C)cc2)=C[C@H](O)[C@@H]1O)C(N)=O | 50 (≈ 86.7 µM) | 59
CCOCCCNC(=O)C1=C[C@H](O)[C@H](O)[C@@H](O[C@@H](C(N)=O)[C@H]2O[C@@H](n3ccc(=O)[nH]c3=O)[C@H](O)[C@@H]2OC)O1 | 100 (≈ 184 µM) | 257
CCc1ccccc1NC(=O)C1=C[C@H](O)[C@H](O)[C@@H](O[C@@H](C(N)=O)[C@H]2O[C@@H](n3ccc(=O)[nH]c3=O)[C@H](O)[C@@H]2OC)O1 | 50 (≈ 88.9 µM) | 96
COC(=O)C1=C[C@H](O)[C@H](O)[C@@H](O[C@@H](C(N)=O)[C@H]2O[C@@H](n3ccc(=O)[nH]c3=O)[C@H](O)[C@@H]2OC)O1 | > 100 | 57
CO[C@H]1[C@@H](O)[C@H](n2ccc(=O)[nH]c2=O)O[C@@H]1[C@@H](O[C@H]1OC(C(=O)NCCN)=C[C@H](O)[C@@H]1O)C(N)=O | 100 (≈ 199 µM) | 1200
CO[C@H]1[C@@H](O)[C@H](n2ccc(=O)[nH]c2=O)O[C@@H]1[C@@H](O[C@H]1OC(C(=O)NCc2ccccn2)=C[C@H](O)[C@@H]1O)C(N)=O | 100 (≈ 182 µM) | 655
COc1cccc(CCNC(=O)C2=C[C@H](O)[C@H](O)[C@@H](O[C@@H](C(N)=O)[C@H]3O[C@@H](n4ccc(=O)[nH]c4=O)[C@H](O)[C@@H]3OC)O2)c1 | 50 (≈ 84.4 µM) | 32.1
COc1ccc(CCNC(=O)C2=C[C@H](O)[C@H](O)[C@@H](O[C@@H](C(N)=O)[C@H]3O[C@@H](n4ccc(=O)[nH]c4=O)[C@H](O)[C@@H]3OC)O2)cc1OC | 50 (≈ 80.3 µM) | 40.2
CO[C@H]1[C@@H](O)[C@H](n2ccc(=O)[nH]c2=O)O[C@@H]1[C@@H](O[C@H]1OC(C(=O)NCC(c2ccccc2)c2ccccc2)=C[C@H](O)[C@@H]1O)C(N)=O | > 100 | 204
CO[C@H]1[C@@H](O)[C@H](n2ccc(=O)[nH]c2=O)O[C@@H]1[C@@H](O[C@H]1OC(C(=O)N[C@@H](C)c2ccccc2)=C[C@H](O)[C@@H]1O)C(N)=O | 50 (≈ 88.9 µM) | 231
CO[C@H]1[C@@H](O)[C@H](n2ccc(=O)[nH]c2=O)O[C@@H]1[C@@H](O[C@H]1OC(C(=O)NCCO)=C[C@H](O)[C@@H]1O)C(N)=O | > 100 | 179
CO[C@H]1[C@@H](O)[C@H](n2ccc(=O)[nH]c2=O)O[C@@H]1[C@@H](O[C@H]1OC(C(=O)NCc2ccc(C)cc2)=C[C@H](O)[C@@H]1O)C(N)=O | 50 (≈ 88.9 µM) | 2130
CCCCN(C)C(=O)C1=C[C@H](O)[C@H](O)[C@@H](O[C@@H](C(N)=O)[C@H]2O[C@@H](n3ccc(=O)[nH]c3=O)[C@H](O)[C@@H]2OC)O1 | > 100 | > 4730
CO[C@H]1[C@@H](O)[C@H](n2ccc(=O)[nH]c2=O)O[C@@H]1[C@@H](O[C@H]1OC(C(=O)N2CCCC2)=C[C@H](O)[C@@H]1O)C(N)=O | > 100 | 820
CO[C@H]1[C@@H](O)[C@H](n2ccc(=O)[nH]c2=O)O[C@@H]1[C@@H](O[C@H]1OC(C(=O)Nc2nncs2)=C[C@H](O)[C@@H]1O)C(N)=O | > 100 | 194
CO[C@H]1[C@@H](O)[C@H](n2ccc(=O)[nH]c2=O)O[C@@H]1[C@@H](O[C@H]1OC(C(=O)NCCCSC)=C[C@H](O)[C@@H]1O)C(N)=O | 50 (≈ 91.5 µM) | 128
CNC(=O)C1=C[C@H](O)[C@H](O)[C@@H](O[C@@H](C(N)=O)[C@H]2O[C@@H](n3ccc(=O)[nH]c3=O)[C@H](O)[C@@H]2OC)O1 | > 100 | 381
COc1ccc(CNC(=O)C2=C[C@H](O)[C@H](O)[C@@H](O[C@@H](C(N)=O)[C@H]3O[C@@H](n4ccc(=O)[nH]c4=O)[C@H](O)[C@@H]3OC)O2)cc1 | 100 (≈ 173 µM) | 1210
CO[C@H]1[C@@H](O)[C@H](n2ccc(=O)[nH]c2=O)O[C@@H]1[C@@H](O[C@H]1OC(C(=O)Nc2nc(C(C)(C)C)cs2)=C[C@H](O)[C@@H]1O)C(N)=O | 100 (≈ 167 µM) | 25.1
CO[C@H]1[C@@H](O)[C@H](n2ccc(=O)[nH]c2=O)O[C@@H]1[C@@H](O[C@H]1OC(C(=O)NCCc2ccc(O)cc2)=C[C@H](O)[C@@H]1O)C(N)=O | 50 (≈ 86.4 µM) | 104
CO[C@H]1[C@@H](O)[C@H](n2ccc(=O)[nH]c2=O)O[C@@H]1[C@@H](O[C@H]1OC(C(=O)NCc2cccs2)=C[C@H](O)[C@@H]1O)C(N)=O | 50 (≈ 90.2 µM) | 139

The remaining compounds from weak to strong by MIC [1], led by results:

MIC [1] [µg/mL] | IC50 [2] [nM] | Structure (SMILES)
50 (≈ 79.2 µM) | 30.1 | CO[C@H]1[C@@H](O)[C@H](n2ccc(=O)[nH]c2=O)O[C@@H]1[C@@H](O[C@H]1OC(C(=O)NCCc2ccc(Cl)cc2Cl)=C[C@H](O)[C@@H]1O)C(N)=O
50 (≈ 91.2 µM) | 219 | CO[C@H]1[C@@H](O)[C@H](n2ccc(=O)[nH]c2=O)O[C@@H]1[C@@H](O[C@H]1OC(C(=O)NCc2ccccc2)=C[C@H](O)[C@@H]1O)C(N)=O
25 (≈ 43.4 µM) | 208 | CO[C@H]1[C@@H](O)[C@H](n2ccc(=O)[nH]c2=O)O[C@@H]1[C@@H](O[C@H]1OC(C(=O)Nc2ccc(C(C)C)cc2)=C[C@H](O)[C@@H]1O)C(N)=O
25 (≈ 39.9 µM) | 622 | CCCCCCCCCCCCNC(=O)C1=C[C@H](O)[C@H](O)[C@@H](O[C@@H](C(N)=O)[C@H]2O[C@@H](n3ccc(=O)[nH]c3=O)[C@H](O)[C@@H]2OC)O1
25 (≈ 42.2 µM) | 67.5 | COc1ccc(CCNC(=O)C2=C[C@H](O)[C@H](O)[C@@H](O[C@@H](C(N)=O)[C@H]3O[C@@H](n4ccc(=O)[nH]c4=O)[C@H](O)[C@@H]3OC)O2)cc1
25 (≈ 41.8 µM) | 184 | CO[C@H]1[C@@H](O)[C@H](n2ccc(=O)[nH]c2=O)O[C@@H]1[C@@H](O[C@H]1OC(C(=O)NCc2ccc3ccccc3c2)=C[C@H](O)[C@@H]1O)C(N)=O
25 (≈ 41.9 µM) | 33.5 | CO[C@H]1[C@@H](O)[C@H](n2ccc(=O)[nH]c2=O)O[C@@H]1[C@@H](O[C@H]1OC(C(=O)NCCc2ccc(Cl)cc2)=C[C@H](O)[C@@H]1O)C(N)=O
25 (≈ 45.1 µM) | 48.7 | CO[C@H]1[C@@H](O)[C@H](n2ccc(=O)[nH]c2=O)O[C@@H]1[C@@H](O[C@H]1OC(C(=O)NC2CCCCCC2)=C[C@H](O)[C@@H]1O)C(N)=O
25 (≈ 44.4 µM) | 107 | CO[C@H]1[C@@H](O)[C@H](n2ccc(=O)[nH]c2=O)O[C@@H]1[C@@H](O[C@H]1OC(C(=O)Nc2ccc(C)cc2C)=C[C@H](O)[C@@H]1O)C(N)=O
25 (≈ 41.8 µM) | 434 | CCCCCCCCCCNC(=O)C1=C[C@H](O)[C@H](O)[C@@H](O[C@@H](C(N)=O)[C@H]2O[C@@H](n3ccc(=O)[nH]c3=O)[C@H](O)[C@@H]2OC)O1
25 (≈ 44.3 µM) | 54.9 | COc1ccccc1NC(=O)C1=C[C@H](O)[C@H](O)[C@@H](O[C@@H](C(N)=O)[C@H]2O[C@@H](n3ccc(=O)[nH]c3=O)[C@H](O)[C@@H]2OC)O1
12.5 (≈ 21.7 µM) | 53.8 | CCCc1ccc(NC(=O)C2=C[C@H](O)[C@H](O)[C@@H](O[C@@H](C(N)=O)[C@H]3O[C@@H](n4ccc(=O)[nH]c4=O)[C@H](O)[C@@H]3OC)O2)cc1
12.5 (≈ 23.1 µM) | 55.5 | CO[C@H]1[C@@H](O)[C@H](n2ccc(=O)[nH]c2=O)O[C@@H]1[C@@H](O[C@H]1OC(C(=O)NC2CCCCC2)=C[C@H](O)[C@@H]1O)C(N)=O
12.5 (≈ 22.2 µM) | 889 | CO[C@H]1[C@@H](O)[C@H](n2ccc(=O)[nH]c2=O)O[C@@H]1[C@@H](O[C@H]1OC(C(=O)NCc2ccccc2C)=C[C@H](O)[C@@H]1O)C(N)=O
12.5 (≈ 21.5 µM) | 37.9 | CO[C@H]1[C@@H](O)[C@H](n2ccc(=O)[nH]c2=O)O[C@@H]1[C@@H](O[C@H]1OC(C(=O)NCCc2ccc(F)cc2)=C[C@H](O)[C@@H]1O)C(N)=O
12.5 (≈ 20.2 µM) | 259 | CCCCCCc1ccc(NC(=O)C2=C[C@H](O)[C@H](O)[C@@H](O[C@@H](C(N)=O)[C@H]3O[C@@H](n4ccc(=O)[nH]c4=O)[C@H](O)[C@@H]3OC)O2)cc1
12.5 (≈ 22.2 µM) | 35.6 | CCc1ccc(NC(=O)C2=C[C@H](O)[C@H](O)[C@@H](O[C@@H](C(N)=O)[C@H]3O[C@@H](n4ccc(=O)[nH]c4=O)[C@H](O)[C@@H]3OC)O2)cc1
12.5 (≈ 20.7 µM) |  | CO[C@H]1[C@@H](O)[C@H](n2ccc(=O)[nH]c2=O)O[C@@H]1[C@@H](O[C@H]1OC(C(=O)Nc2ccc(C(F)(F)F)cc2)=C[C@H](O)[C@@H]1O)C(N)=O
12.5 (≈ 20.9 µM) | 33.5 | CO[C@H]1[C@@H](O)[C@H](n2ccc(=O)[nH]c2=O)O[C@@H]1[C@@H](O[C@H]1OC(C(=O)NCCc2cccc(Cl)c2)=C[C@H](O)[C@@H]1O)C(N)=O
12.5 (≈ 24.3 µM) | 544 | CCCCNC(=O)C1=C[C@H](O)[C@H](O)[C@@H](O[C@@H](C(N)=O)[C@H]2O[C@@H](n3ccc(=O)[nH]c3=O)[C@H](O)[C@@H]2OC)O1
12.5 (≈ 22.8 µM) | 23.7 | CO[C@H]1[C@@H](O)[C@H](n2ccc(=O)[nH]c2=O)O[C@@H]1[C@@H](O[C@H]1OC(C(=O)Nc2ccc(C)cc2)=C[C@H](O)[C@@H]1O)C(N)=O
12.5 (≈ 22.2 µM) | 37.3 | CO[C@H]1[C@@H](O)[C@H](n2ccc(=O)[nH]c2=O)O[C@@H]1[C@@H](O[C@H]1OC(C(=O)NCCc2ccccc2)=C[C@H](O)[C@@H]1O)C(N)=O
